Reference: publication PMC7727669, “Platinum(II) Complexes with Bulky Disubstitute Triazolopyrimidines as Promising Materials for Anticancer Agents” (Materials, 2020)
Where two headings read alike, the source gives them in different places.

Key:
[1] = cited from earlier work
[2] = system: colon cancer cells (LOVO); test: In vitro antiproliferative activity, SRB test, LoVo; type: cell-based, human; settings: 72 h incubation, average of three determinations
Description: (§1) The in vitro antiproliferative activity against three human tumor cell lines, namely, non-small cell lung carcinoma (A549) (ATCC, Rockville, MD, USA), […] human ductal breast epithelial tumor cells (T47D) (ATCC, Rockville, MD, USA) and colon cancer cells (LOVO) (ATCC, Rockville, MD, USA), and normal murine embryonic fibroblast cells (BALB/3T3) (ATCC, Rockville, MD, USA), was assessed.
(§2) Cells were plated in 96-well sterile plates (Sarstedt, Costar) at a density of 10^4 cells per well (in 100 μL of culture medium) and incubated for 24 h. The tested compound was added in final concentrations ranging from 0.1 to 100 μg mL^−1, and the incubation was continued for an additional 72 h. The results of in vitro cytotoxic activity are expressed as an IC50 (the dose of compound (in μM) that inhibits proliferation rate of tumor cells by 50%) value compared to the untreated control cells. IC50 values are expressed as the averages of three independently reproduced experiments. The details of this technique were described by Skehan. The tests of the antiproliferative activity in vitro against both cell lines were performed with the SRB (sulforhodamine B) test using an automated microplate reader (Synergy H4 photometer, BioTek Instruments Inc., Winooski, VT, USA). Moreover, in vitro toxicity against normal murine fibroblast Balb3T3 cells was assessed.

[3] = system: cisplatin-resistant human ductal breast epithelial tumor cells (T47D); test: In vitro antiproliferative activity, SRB test, T47D; type: cell-based; settings: 72 h incubation, average of three determinations
Description: as §1, §2

[4] = system: non-small cell lung carcinoma (A549); test: In vitro antiproliferative activity, SRB test, A549; type: cell-based, human; settings: A549, 72 h incubation, average of three determinations
Description: as §1, §2

[5] = system: human ovarian carcinoma cell lines resistant to cisplatin (A2780R); design: method as in PMID 19783310; settings: read-out: in vitro activity against A2780R; cited from earlier work
[6] = system: normal murine embryonic fibroblast cells (BALB/3T3); test: In vitro toxicity against normal fibroblasts, SRB test, BALB/3T3; type: cell-based; settings: BALB/3T3 normal cells, 72 h incubation, average of three determinations
Description: as §2, with “The results of in vitro cytotoxic activity are expressed as an IC50 (the dose of compound (in μM) that inhibits proliferation rate of tumor cells by 50%) value compared to the untreated control cells.” left out

[7] = Partition coefficient (logP), shake-flask method; type: physicochemical; settings: n-octanol / aqueous 0.9% NaCl, UV-Vis
Description: The lipophilicity (logP) of the platinum(II) compounds was determined using the shake–flask method. At first, aqueous (0.9% w/v) sodium chloride and organic (n–octanol) phases were saturated for 1 week. […] An equal volume of immiscible solvent was added, and the solutions were mixed mechanically in plastic tubes for 30 min. Samples were centrifuged (6000 rpm, 15 min). After separation, the phases were analyzed by UV–Vis spectroscopy to determine the amount of the compound in each phase. The absorption values before and after shaking were compared, and based on the Lambert–Beer law, the partition coefficient in both phases for each compound was calculated to determine the logP values. The procedures were repeated threefold.

CC(C)(C)c1cc(C(C)(C)C)n2ncnc2n1.CC(C)(C)c1cc(C(C)(C)C)n2ncnc2n1.O=C([O-])CC(=O)[O-].[Pt+2] [[Pt(mal)(dbtp)2]]
logP ([1]; symmetrical malonato complexes, previous work): 2.07

N.N.O=C([O-])C1(C(=O)[O-])CCC1.[Pt+2] [carboplatin]
log P ([1]; literature data for platinum(II) drugs): −2.30

N.N.[Cl][Pt][Cl] [cisplatin, reference compound]
IC50 [2]: 0.84 ± 0.3 µM | IC50 [3]: 3.11 ± 1.2 µM | IC50 [4]: 9 ± 1.1 µM | IC50 [5]: 20.4 µM | IC50 [6]: 3.2 ± 1.5 µM

(Dimethylsulfoxide-κS)(5,7-ditertbutyl-1,2,4-triazolo[1,5-a]pyrimidine-κN(3))(cyclobutane-1,1- dicarboxylato-κ^2O,O′))platinum(II) monoaqua hydrate [Complex 3]
IC50 [2]: 20 ± 2.8 µM | IC50 [3]: 6.6 ± 4.8 µM | log P [7]: −1.69 | IC50 [4]: 5 ± 0.9 µM | IC50 [6]: 10.2 ± 6.2 µM

(Dimethylsulfoxide-κS)(5,7-ditertbutyl-1,2,4-triazolo[1,5-a]pyrimidine-κN(3))(malonato-κ^2O,O′) platinum(II) [Complex 1]
IC50 [2]: 27.9 ± 1 µM | IC50 [3]: 17.1 ± 10.5 µM | log P [7]: −1.58 | IC50 [4]: 16.3 ± 9.9 µM | IC50 [6]: 30.2 ± 22.6 µM

(Dimethylsulfoxide-κS)(7-isobutyl-5-methyl-1,2,4-triazolo[1,5-a]pyrimidine-κN(3))(cyclo- butane-1,1-dicarboxylato-κ^2O,O′))platinum(II) monoaqua hydrate [Complex 4]
IC50 [2]: 41.2 ± 1.6 µM | IC50 [3]: 21.9 ± 17.2 µM | log P [7]: −1.23 | IC50 [4]: 57.3 ± 11.3 µM | IC50 [6]: 73.4 ± 29.7 µM

(Dimethylsulfoxide-κS)(7-isobutyl-5-methyl-1,2,4-triazolo[1,5-a]pyrimidine-κN(3))(malonato- κ^2O,O′)platinum(II) monoaqua hydrate [Complex 2]
IC50 [2]: 38.4 ± 1.8 µM | IC50 [3]: 42.6 ± 19 µM | log P [7]: −0.65 | IC50 [4]: 57.8 ± 13.5 µM | IC50 [6]: 46 ± 40.7 µM
